These results are taken from patent US5491155A, “Substituted thiadiazoles, compositions containing them and their use as antimicrobial and marine antifouling agents” (The Dow Chemical Company, priority 1994, dated 1996).

≈ marks a conversion by molar mass, not a printed value. Like-named read-outs stand apart in the source and are kept apart here.

One experiment has as its system Aspergillus niger. As to the kind of experiment: MIC in malt yeast agar, Aspergillus niger. The format is cell-based, Aspergillus niger (ATCC 16404). The conditions noted are these: An; malt yeast agar; 30° C.; 72 hours for fungi; read-out: Minimum Inhibitory Concentration (MIC). As to the method: (§1) The minimum inhibitory concentration (MIC) for the compounds listed in Table I is determined for bacteria, using nutrient agar, and 7 yeast and fungi, using malt yeast agar. A one percent solution of the test compound is prepared in a mixture of acetone and water.
(§2) Malt yeast agar is prepared by adding 3 g yeast extract and 45 g malt agar per liter of deionized water. The specific agar is dispensed in 30 mL aliquots into 25×200 mm test tubes, capped and autoclaved for 15 minutes at 115° C.
(§3) The test tubes containing the agar are cooled in a water bath until the temperature of the agar is 48° C. Then, an appropriate amount of the one percent solution of the test compound is added (except in the controls where no compound is added) to the respective test tubes so that the final concentrations are 500, 250, 100, 50, 25, 10, 2.5, 1.0 and zero parts per million of the test compound in the agar, thus having a known concentration of test compound dispersed therein. The contents of the test tubes are then transferred to respective petri plates. After drying for 24 hours, the petri plates containing nutrient agar are inoculated with bacteria and those containing malt yeast agar are inoculated with yeast and fungi.
(§4) The inoculation with the yeast and fungi is accomplished as follows. Cultures of yeast and fungi are incubated for seven days on malt yeast agar at 30° C. These cultures are used to prepare suspensions by the following procedure. A suspension of each organism is prepared by adding 10 mL of sterile saline and 10 microliters of octylphenoxy polyethoxy ethanol to the agar slant of yeast or fungi. The sterile saline/octylphenoxy polyethoxy ethanol solution is then agitated with a sterile swab to suspend the microorganism grown on the slant. Each resulting suspension is diluted into sterile saline (1 part suspension: 9 parts sterile saline). Aliquots of these dilutions are placed in individual wells of Steer's Replicator and petri plates inoculated as previously described. The petri plates are incubated at 30° C. and read after 48 hours for yeast and 72 hours for fungi.
(§5) Table II lists the bacteria, yeast and fungi used in the MIC test described above along with their respective American Type Culture Collection (ATCC) identification numbers.
(§6) In Tables III and IV, the MIC values of the compounds described in Table I as compared to the MIC of a standard commercial preservative (with 1-(3-chloroalkyl)-3,5,7-triaza-1-azoniaadamantane chloride as the active agent and referred to in Tables III and IV as "STANDARD I") are set forth for the bacteria organisms and yeast/fungi organisms which are listed in Table II.

A further experiment concerns Klebsiella pneumonias. As to the kind of experiment: MIC in nutrient agar, Klebsiella pneumonias. The class given is cell-based, Klebsiella pneumonias (ATCC 8308). The conditions noted are these: Kp, 48 hours, read-out: Minimum Inhibitory Concentration (MIC). The method, then: as §1
(§7) Nutrient agar is prepared at pH 6.8, representing a neutral medium, and at pH 8.2, representing an alkaline medium. The nutrient agars are prepared by adding 23 g of nutrient agar to one-liter of deionized water. In addition, the alkaline medium is prepared by adjusting a 0.04M solution of N-(tris-(hydroxymethyl)methyl)glycine buffered deionized water with concentrated sodium hydroxide to a pH of 8.5.
as §3
(§8) The inoculation with bacteria is accomplished by using the following procedure. Twenty-four hour-cultures of each of the bacteria are prepared by incubating the respective bacteria in tubes containing nutrient broth for 24 hours at 30° C. in a shaker. Dilutions of each of the 24 hour-cultures are made so that nine separate suspensions (one for each of the nine test bacteria) are made, each containing 10^8 colony forming units (CFU) per mL of suspension of a particular bacteria. Aliquots of 0.3 mL of each of the bacterial suspensions are used to fill the individual wells of Steer's Replicator. For each microbial suspension, 0.3 mL was used to fill three wells (i.e., three wells of 0.3 mL each) so that for the nine different bacteria, 27 wells are filled. The Steer's Replicator is then used to inoculate both the neutral and alkaline pH nutrient agar petri plates.
(§9) The inoculated petri plates are incubated at 30° C. for 48 hours and then read to determine if the test compound which is incorporated into the agar prevented growth of the respective bacteria.
as §5, §6

A further experiment deals with Fusarium oxysporum. Nature of the experiment: MIC in malt yeast agar, Fusarium oxysporum. The format is cell-based, Fusarium oxysporum (ATCC 48112). The conditions noted are these: Fo; malt yeast agar; 30° C.; 72 hours for fungi; read-out: Minimum Inhibitory Concentration (MIC). The method, then:
as §1, §2, §3, §4, §5, §6

In a further experiment the test system is Penicillium chrysogenum. Nature of the experiment: MIC in malt yeast agar, Penicillium chrysogenum. The format is cell-based, Penicillium chrysogenum (ATCC 9480). The conditions noted are these: Pc; malt yeast agar; 30° C.; 72 hours for fungi; read-out: Minimum Inhibitory Concentration (MIC). As to the method: as §1, §2, §3, §4, §5, §6
In another experiment the test system is Trichoderma viride. Nature of the experiment: MIC in malt yeast agar, Trichoderma viride. The class given is cell-based, Trichoderma viride (ATCC 8678). The conditions noted are these: Tv; malt yeast agar; 30° C.; 72 hours for fungi; read-out: Minimum Inhibitory Concentration (MIC). As to the method: as §1, §2, §3, §4, §5, §6
The test system of the next experiment is Candida albicans. As to the kind of experiment: MIC in malt yeast agar, Candida albicans. The class given is cell-based, Candida albicans (ATCC 10231). The conditions noted are these: Ca; malt yeast agar; 30° C.; 48 hours for yeast; read-out: Minimum Inhibitory Concentration (MIC). As to the method: as §1, §2, §3, §4, §5, §6
In a further experiment the test system is Aureobasidium pullulan. As to the kind of experiment: MIC in malt yeast agar, Aureobasidium pullulan. The class given is cell-based, Aureobasidium pullulan (ATCC 16622). The conditions noted are these: Ap; malt yeast agar; 30° C.; 72 hours for fungi; read-out: Minimum Inhibitory Concentration (MIC). As to the method:
as §1, §2, §3, §4, §5, §6

Another experiment concerns Proteus vulgaris. As to the kind of experiment: MIC in nutrient agar, Proteus vulgaris. The class given is cell-based, Proteus vulgaris (ATCC 881). The conditions noted are these: Pv, 48 hours, read-out: Minimum Inhibitory Concentration (MIC). The method, then: as §1, §7, §3, §8, §9, §5, §6
The next experiment relates to Bacillus subtilis. As to the kind of experiment: MIC in nutrient agar, Bacillus subtilis. The conditions noted are these: Bs, 48 hours, read-out: Minimum Inhibitory Concentration (MIC). The format is cell-based, Bacillus subtilis (ATCC 8473). The method, then: as §1, §7, §3, §8, §9, §5, §6
The subject of the next experiment is Escherichia coli. As to the kind of experiment: MIC in nutrient agar, Escherichia coli. The format is cell-based, Escherichia coli (ATCC 11229). The conditions noted are these: Ec, 48 hours, read-out: Minimum Inhibitory Concentration (MIC). The method, then: as §1, §7, §3, §8, §9, §5, §6
The next experiment concerns Pseudomonas aeruginosa. Nature of the experiment: MIC in nutrient agar, Pseudomonas aeruginosa (Pa). The conditions noted are these: Pa, 48 hours, read-out: Minimum Inhibitory Concentration (MIC). The format is cell-based, Pseudomonas aeruginosa (ATCC 10145). As to the method: as §1, §7, §3, §8, §9, §5, §6
The next experiment concerns Saccharomyces cerevisiae. As to the kind of experiment: MIC in malt yeast agar, Saccharomyces cerevisiae. The conditions noted are these: Sc, malt yeast agar, 30° C., 48 hours for yeast, read-out: Minimum Inhibitory Concentration (MIC). The class given is cell-based, Saccharomyces cerevisiae (ATCC 4105). As to the method:
as §1, §2, §3, §4, §5, §6

The next experiment has as its system Enterobacter aerogenes. Nature of the experiment: MIC in nutrient agar, Enterobacter aerogenes. The class given is cell-based, Enterobacter aerogenes (ATCC 13048). The conditions noted are these: Klebsiella aerogenes, Ea, 30° C., 48 hours, read-out: Minimum Inhibitory Concentration (MIC). The method, then: as §1, §7, §3, §8, §9, §5, §6

As to `N#CSCSc1nsnc1SCSC#N` [Example 4, Bis(thiomethylthiocyanato)-1,2,5-thiadiazole], the MIC with Aspergillus niger is under 2.5 µg/mL; in the experiment with Klebsiella pneumonias (pH 6.8, 30° C.) it was under 10 µg/mL; in the experiment on Klebsiella pneumonias (pH 8.2, 30° C.) it was under 10 µg/mL; in the experiment with Fusarium oxysporum, under 2.5 µg/mL; in the experiment on Penicillium chrysogenum, under 2.5 µg/mL; with Trichoderma viride it was 10 µg/mL (≈ 34.2 µM). In addition, the MIC in the experiment on Candida albicans is under 2.5 µg/mL; with Aureobasidium pullulan, under 2.5 µg/mL; in the experiment with Proteus vulgaris (pH 6.8, 30° C.), under 10 µg/mL; in the experiment on Proteus vulgaris (pH 8.2, 30° C.), under 10 µg/mL; with Bacillus subtilis (pH 6.8, 30° C.), under 10 µg/mL; with Bacillus subtilis (pH 8.2, 30° C.), under 10 µg/mL. Also, the MIC in the experiment with Escherichia coli (pH 6.8, 30° C.) was 25 µg/mL (≈ 85.5 µM); in the experiment with Escherichia coli (pH 8.2, 30° C.) it was under 10 µg/mL; with Pseudomonas aeruginosa (pH 6.8, 30° C.), under 10 µg/mL; in the experiment with Pseudomonas aeruginosa (pH 8.2, 30° C.) it was under 10 µg/mL; in the experiment with Saccharomyces cerevisiae, under 2.5 µg/mL; in the experiment on Enterobacter aerogenes (pH 6.8) it was 25 µg/mL (≈ 85.5 µM). Moreover, in the experiment on Enterobacter aerogenes (pH 8.2), the MIC is under 10 µg/mL.

For the compound `N#CSc1nsnc1SC#N` [Example 2, Bis(thiocyanato)-1,2,5-thiadiazole], the MIC with Aspergillus niger is under 1 µg/mL; in the experiment with Klebsiella pneumonias (pH 6.8, 30° C.) it was 25 µg/mL (≈ 125 µM); in the experiment with Klebsiella pneumonias (pH 8.2, 30° C.), 250 µg/mL (≈ 1250 µM); in the experiment on Fusarium oxysporum it was 2.5 µg/mL (≈ 12.5 µM); with Penicillium chrysogenum it was under 1 µg/mL; in the experiment with Trichoderma viride, 5 µg/mL (≈ 25 µM). The MIC in the experiment with Candida albicans is under 1 µg/mL; in the experiment on Aureobasidium pullulan, under 1 µg/mL; in the experiment with Proteus vulgaris (pH 6.8, 30° C.), 25 µg/mL (≈ 125 µM); in the experiment on Proteus vulgaris (pH 8.2, 30° C.) it was 100 µg/mL (≈ 499 µM); in the experiment on Bacillus subtilis (pH 6.8, 30° C.) it was 25 µg/mL (≈ 125 µM); in the experiment with Bacillus subtilis (pH 8.2, 30° C.), 100 µg/mL (≈ 499 µM). For the same compound, the MIC in the experiment on Escherichia coli (pH 6.8, 30° C.) was found to be 25 µg/mL (≈ 125 µM); in the experiment on Escherichia coli (pH 8.2, 30° C.), 50 µg/mL (≈ 250 µM); in the experiment on Pseudomonas aeruginosa (pH 6.8, 30° C.), 50 µg/mL (≈ 250 µM); in the experiment with Pseudomonas aeruginosa (pH 8.2, 30° C.), 250 µg/mL (≈ 1250 µM); in the experiment on Saccharomyces cerevisiae it was 5 µg/mL (≈ 25 µM); in the experiment with Enterobacter aerogenes (pH 6.8), 25 µg/mL (≈ 125 µM). For the same compound, the MIC with Enterobacter aerogenes (pH 8.2) was found to be 100 µg/mL (≈ 499 µM).
